Experimental data published in patent publication US11554182B2, “Macrocyclic complexes of alpha-emitting radionuclides and their use in targeted radiotherapy of cancer” (CORNELL UNIVERSITY, priority 2017, dated 2023).

Assay: In vivo biodistribution of ^225Ac complexes after intravenous injection
Parameters: species or system C57BL/6 mice
Procedure: In Vivo Biodistribution of ^225Ac Complexes of Macropa and DOTA. All experiments were approved by the Institutional Animal Care Committee (IACC) of the University of British Columbia and were performed in accordance with the Canadian Council on Animal Care Guidelines. A total of 9 female C57BL/6 mice (6-8 weeks old, 20-25 g) were used for the biodistribution study of each radiometal complex, n=3 for each time point.
Macropa (100 μL of a 1 mg/mL solution in NH4OAc) was diluted with 387 μL of NH4OAc (1 M, pH 7), and an aliquot (203 μL) of ^225Ac(NO3)3 (˜157 kBq) was then added; the pH of this solution was adjusted to 6.5-7 by the addition of 1 M NaOH (210 μL, trace metal grade). After 5 min at ambient temperature, the reaction solution was analyzed by TLC (0.4 M pH 4 sodium citrate as the eluent), which confirmed >95% radiochemical yield. The reaction was allowed to proceed overnight, and the radiochemical yield was again confirmed to be >95% the following morning. At this time, mice were anesthetized by 2% isoflurane, and approximately 100 μL (10-15 kBq) of the [^225Ac(macropa)]^+ complex were injected into the tail vein of each mouse. After injection, mice were allowed to recover and roam freely in their cages, and were euthanized by CO2 inhalation at 15 min, 1 h, or 5 h (n=3 at each time point) post-injection. Blood was collected by cardiac puncture and placed into an appropriate test tube for scintillation counting. Tissues collected included heart, liver, kidneys, lungs, small intestine, large intestine, brain, bladder, spleen, stomach, pancreas, bone, thyroid, tail, urine, and feces. Tissues were weighed and then counted with a calibrated gamma counter (Packard, Cobra II model 5002) using three energy windows: 60-120 keV (window A), 180-260 keV (window B), and 400-480 keV (window C). Counting was performed both immediately after sacrifice and after 7 days; counts were decay corrected from the time of injection and then converted to the percentage of injected dose (% ID) per gram of tissue (% ID/g). No differences were noted between the data; therefore, the biodistributions are reported using the data acquired immediately using window A.
The biodistribution studies of [^225Ac(DOTA)]^− and ^225Ac(NO3)3 were carried out as described above for [^225Ac(macropa)]^+, with the following modifications. [^225Ac(DOTA)]^− was prepared by adding ^225Ac(NO3)3 (338 μL, 1.1 MBq) to a solution of DOTA (100 μg, 20 mg/mL in H2O) in NH4OAc (467 μL, 0.15 M, pH 7). The pH of the solution was adjusted to 7 using NH4OAc (150 μL, 1 M, pH 7) and the solution was heated at 85° C. for 45 min. RCY>99% was confirmed by TLC as described above. [^225Ac(DOTA)]^− was diluted with saline to a final concentration of 0.05 MBq/100 μL, and 100 μL were injected into each mouse. ^225Ac(NO3)3 (˜58 μL, 0.4 MBq) was diluted and injected in the same manner as [^225Ac(DOTA)]^−. One mouse that was to be euthanized at the 5 h time point in the [^225Ac(DOTA)]^− study died shortly after injection. In the same manner, one mouse that was to be euthanized at the 1 h time point in the ^225Ac(NO3)3 study died.
The in vivo stability [^225Ac(macropa)]^+ was examined by comparing its biodistribution to those of ^225Ac(NO3)3 and [^225Ac(DOTA)]^−. C57BL/6 mice were injected via tail vein with 10-50 kBq of each radiometal complex and were sacrificed after 15 min, 1 h, or 5 h. The amount of ^225Ac retained in each organ was quantified by gamma counting and reported as the percent of injected dose per gram of tissue (% ID/g). The results of these studies are compiled in Tables 1-3. Inadequate stability of an ^225Ac complex leading to the loss of radioisotope in vivo is manifested by the accumulation of ^225Ac in the liver, spleen, and bone of mice.^[11,12,32] […] The biodistribution profile of [^225Ac(macropa)]^+ (FIG. 3B) differs markedly from that of ^225Ac(NO3)3. […]

[1] = 15 min after i.v. injection, energy window A (60-120 keV)
[2] = 15 min after i.v. injection, energy window B (180-260 keV)
[3] = 15 min after i.v. injection, energy window C (400-480 keV)
[4] = 1 h after i.v. injection, energy window A (60-120 keV)
[5] = 1 h after i.v. injection, energy window B (180-260 keV)
[6] = 1 h after i.v. injection, energy window C (400-480 keV)
[7] = 5 h after i.v. injection, energy window A (60-120 keV)
[8] = 5 h after i.v. injection, energy window B (180-260 keV)
[9] = 5 h after i.v. injection, energy window C (400-480 keV)
[10] = i.v. injection, C57BL/6 mice, up to 5 h

## O=[N+]([O-])[O-].O=[N+]([O-])[O-].O=[N+]([O-])[O-].[225Ac] [^225Ac(NO3)3]
[1]
  % ID/g in bladder: 1.477 % ID/g
  % ID/g in blood: 40.966 % ID/g
  % ID/g in bone (femur + joint): 2.764 % ID/g
  % ID/g in brain: 0.614 % ID/g
  % ID/g in feces: 0.240 % ID/g
  % ID/g in heart: 8.557 % ID/g
  % ID/g in kidneys: 10.468 % ID/g
  % ID/g in large intestines: 1.116 % ID/g
  % ID/g in liver: 22.899 % ID/g
  % ID/g in lungs: 12.757 % ID/g
  % ID/g in pancreas: 2.366 % ID/g
  % ID/g in small intestines: 2.002 % ID/g
  % ID/g in spleen: 22.733 % ID/g
  % ID/g in stomach: 2.348 % ID/g
  % ID/g in tail: 7.459 % ID/g
  % ID/g in thyroids: 4.391 % ID/g
  % ID/g in urine: 5.527 % ID/g
[2]
  % ID/g in bladder: 1.6996 % ID/g
  % ID/g in blood: 41.5628 % ID/g
  % ID/g in bone (femur + joint): 2.7487 % ID/g
  % ID/g in brain: 0.6536 % ID/g
  % ID/g in feces: 0.3857 % ID/g
  % ID/g in heart: 8.3605 % ID/g
  % ID/g in kidneys: 9.6424 % ID/g
  % ID/g in large intestines: 1.1570 % ID/g
  % ID/g in liver: 23.6091 % ID/g
  % ID/g in lungs: 12.9714 % ID/g
  % ID/g in pancreas: 2.2821 % ID/g
  % ID/g in small intestines: 1.9641 % ID/g
  % ID/g in spleen: 24.0497 % ID/g
  % ID/g in stomach: 2.3704 % ID/g
  % ID/g in tail: 8.0722 % ID/g
  % ID/g in thyroids: 9.6295 % ID/g
  % ID/g in urine: 5.0951 % ID/g
[3]
  % ID/g in bladder: 1.9351 % ID/g
  % ID/g in blood: 42.3521 % ID/g
  % ID/g in bone (femur + joint): 3.4560 % ID/g
  % ID/g in brain: 0.6755 % ID/g
  % ID/g in feces: 0.4896 % ID/g
  % ID/g in heart: 9.0992 % ID/g
  % ID/g in kidneys: 14.2266 % ID/g
  % ID/g in large intestines: 1.5716 % ID/g
  % ID/g in liver: 24.1147 % ID/g
  % ID/g in lungs: 14.4797 % ID/g
  % ID/g in pancreas: 2.4405 % ID/g
  % ID/g in small intestines: 2.0956 % ID/g
  % ID/g in spleen: 25.4263 % ID/g
  % ID/g in stomach: 2.4232 % ID/g
  % ID/g in tail: 9.1381 % ID/g
  % ID/g in thyroids: 3.5934 % ID/g
  % ID/g in urine: 19.8282 % ID/g
[4]
  % ID/g in bladder: 0.9047 % ID/g
  % ID/g in blood: 20.8234 % ID/g
  % ID/g in bone (femur + joint): 2.4707 % ID/g
  % ID/g in brain: 0.2995 % ID/g
  % ID/g in feces: 0.2189 % ID/g
  % ID/g in heart: 4.4261 % ID/g
  % ID/g in kidneys: 7.2170 % ID/g
  % ID/g in large intestines: 0.6035 % ID/g
  % ID/g in liver: 39.8269 % ID/g
  % ID/g in lungs: 8.2412 % ID/g
  % ID/g in pancreas: 2.1771 % ID/g
  % ID/g in small intestines: 1.5594 % ID/g
  % ID/g in spleen: 34.8831 % ID/g
  % ID/g in stomach: 1.6211 % ID/g
  % ID/g in tail: 5.7939 % ID/g
  % ID/g in thyroids: 2.5988 % ID/g
  % ID/g in urine: 4.5194 % ID/g
[5]
  % ID/g in bladder: 0.8092 % ID/g
  % ID/g in blood: 21.4460 % ID/g
  % ID/g in bone (femur + joint): 2.7705 % ID/g
  % ID/g in brain: 0.3247 % ID/g
  % ID/g in feces: 0.3300 % ID/g
  % ID/g in heart: 4.5832 % ID/g
  % ID/g in kidneys: 6.8770 % ID/g
  % ID/g in large intestines: 0.5629 % ID/g
  % ID/g in liver: 41.0995 % ID/g
  % ID/g in lungs: 8.4426 % ID/g
  % ID/g in pancreas: 2.1579 % ID/g
  % ID/g in small intestines: 1.5192 % ID/g
  % ID/g in spleen: 37.1540 % ID/g
  % ID/g in stomach: 1.5867 % ID/g
  % ID/g in tail: 6.4201 % ID/g
  % ID/g in thyroids: 5.7426 % ID/g
  % ID/g in urine: 7.0564 % ID/g
[6]
  % ID/g in bladder: 2.2929 % ID/g
  % ID/g in blood: 11.3736 % ID/g
  % ID/g in bone (femur + joint): 2.7213 % ID/g
  % ID/g in brain: 0.4402 % ID/g
  % ID/g in feces: 0.1122 % ID/g
  % ID/g in heart: 3.3464 % ID/g
  % ID/g in kidneys: 6.2070 % ID/g
  % ID/g in large intestines: 0.4366 % ID/g
  % ID/g in liver: 23.6180 % ID/g
  % ID/g in lungs: 5.2078 % ID/g
  % ID/g in pancreas: 1.8508 % ID/g
  % ID/g in small intestines: 3.5548 % ID/g
  % ID/g in spleen: 38.1082 % ID/g
  % ID/g in stomach: 2.3350 % ID/g
  % ID/g in tail: 9.0877 % ID/g
  % ID/g in thyroids: 0.0000 % ID/g
  % ID/g in urine: 104.9103 % ID/g
[7]
  % ID/g in bladder: 1.4947 % ID/g
  % ID/g in blood: 1.9886 % ID/g
  % ID/g in bone (femur + joint): 3.5460 % ID/g
  % ID/g in brain: 0.0452 % ID/g
  % ID/g in feces: 0.9445 % ID/g
  % ID/g in heart: 1.3450 % ID/g
  % ID/g in kidneys: 4.6910 % ID/g
  % ID/g in large intestines: 0.6479 % ID/g
  % ID/g in liver: 59.8156 % ID/g
  % ID/g in lungs: 4.1871 % ID/g
  % ID/g in pancreas: 0.4874 % ID/g
  % ID/g in small intestines: 1.3704 % ID/g
  % ID/g in spleen: 62.9614 % ID/g
  % ID/g in stomach: 2.6131 % ID/g
  % ID/g in tail: 23.4055 % ID/g
  % ID/g in thyroids: -2.7052 % ID/g
  % ID/g in urine: 4.8267 % ID/g
[8]
  % ID/g in bladder: 1.5234 % ID/g
  % ID/g in blood: 2.0018 % ID/g
  % ID/g in bone (femur + joint): 3.8533 % ID/g
  % ID/g in brain: 0.0290 % ID/g
  % ID/g in feces: 1.0201 % ID/g
  % ID/g in heart: 1.3948 % ID/g
  % ID/g in kidneys: 3.8752 % ID/g
  % ID/g in large intestines: 0.6744 % ID/g
  % ID/g in liver: 62.0765 % ID/g
  % ID/g in lungs: 4.3379 % ID/g
  % ID/g in pancreas: 0.4455 % ID/g
  % ID/g in small intestines: 1.2201 % ID/g
  % ID/g in spleen: 65.9117 % ID/g
  % ID/g in stomach: 2.5322 % ID/g
  % ID/g in tail: 25.4744 % ID/g
  % ID/g in thyroids: −4.6044 % ID/g
  % ID/g in urine: 3.3142 % ID/g
[9]
  % ID/g in bladder: 3.4975 % ID/g
  % ID/g in blood: 2.1769 % ID/g
  % ID/g in bone (femur + joint): 3.5851 % ID/g
  % ID/g in brain: 0.0430 % ID/g
  % ID/g in feces: 0.8535 % ID/g
  % ID/g in heart: 1.2018 % ID/g
  % ID/g in kidneys: 4.2061 % ID/g
  % ID/g in large intestines: 1.0259 % ID/g
  % ID/g in liver: 54.1727 % ID/g
  % ID/g in lungs: 5.4923 % ID/g
  % ID/g in pancreas: 0.4643 % ID/g
  % ID/g in small intestines: 1.2922 % ID/g
  % ID/g in spleen: 62.2357 % ID/g
  % ID/g in stomach: 2.0358 % ID/g
  % ID/g in tail: 28.4443 % ID/g
  % ID/g in thyroids: -0.4455 % ID/g
  % ID/g in urine: 5.8548 % ID/g
[10]
  clearance from blood / mice (in words): slow blood clearance and excretion
  organ accumulation (in words): large accumulation in the liver and spleen
